Reference: PubChem BioAssay (NCI)
Values joined by “and” are separate entries in the source; they are usually repeats but may differ in a detail not shown here. Equal values may be shown once.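 Cells were grown in 96-well plates and exposed to each compound for 48 hours at five concentrations; endpoints were interpolated linearly between bracketing concentrations, or set to the highest concentration if not reached. GI50: concentration for 50% inhibition of growth. TGI is the concentration that stops growth completely.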

Columns and labels:
Test in all cases: NCI anticancer screen, dose series, 48 h
DU-145 prostate = system: DU-145 prostate
PC-3 prostate = system: PC-3 prostate
HS 578T breast = system: HS 578T breast
MDA-N = system: MDA-N
DLD-1 colon = system: DLD-1 colon
LXFL 529 NSCLC = system: LXFL 529 NSCLC
SNB-78 CNS = system: SNB-78 CNS
RXF-631 renal = system: RXF-631 renal
XF 498 CNS = system: XF 498 CNS

Work on `c1ccc(CN2CCC3(CC2)ONC2=NCCN23)cc1` yielded a GI50 (DU-145 prostate) of over 100000 nM, a TGI (DU-145 prostate) of over 100 µM and a GI50 (PC-3 prostate) of 49.5 µM. It also gave a TGI (PC-3 prostate) of over 100 µM.
`COc1ccc(CNCCCN2C(=O)c3ccc4c5c(ccc(c35)C2=O)C(=O)N(CCCNCCCCNCCCN)C4=O)c(OC)c1OC` showed a GI50 (DU-145 prostate) of 1550 nM, a TGI (DU-145 prostate) of 3.44 µM and a GI50 (HS 578T breast) of 7520 nM. It also gave a TGI (HS 578T breast) of 43.4 µM, a GI50 (PC-3 prostate) of 2.4 µM and a TGI (PC-3 prostate) of 26.3 µM.
In the case of `CC(=O)OC1C(O)COC(Oc2c(C)c3c4c(c2O)[C@@H](C)CC[C@@H]4[C@@H](C)C[C@H]3C=C(C)C)C1O` (stereo partly drawn), the GI50 (DU-145 prostate) is reported as 12800 nM, the TGI (DU-145 prostate) is reported as 29 µM and the GI50 (HS 578T breast) is reported as 16800 nM. For the same compound, the TGI (HS 578T breast) was 37.2 µM, the GI50 (PC-3 prostate) was 11.3 µM and the TGI (PC-3 prostate) was 26.3 µM.
With `COc1cccc2c1C(=O)c1c(O)c3c(c(O)c1C2=O)C[C@@](O)(C(=O)COC(=O)c1cccnc1)C[C@@H]3OC1CC(N)C(O)C(C)O1` (stereo partly drawn) the GI50 (DU-145 prostate) was 223 nM, the TGI (DU-145 prostate) was 14.1 µM and the GI50 (HS 578T breast) was 175 nM. It also gave a TGI (HS 578T breast) of 0.984 µM, a GI50 (PC-3 prostate) of 0.222 µM and a TGI (PC-3 prostate) of 1.43 µM.
Work on `CCc1nc2cc(/C=C/C(=O)NO)c(F)cc2c(=O)n1CCc1ccccc1` yielded a GI50 (DU-145 prostate) of 666 nM, a TGI (DU-145 prostate) of 10.5 µM and a GI50 (HS 578T breast) of 2950 nM. For the same compound, the TGI (HS 578T breast) was 45.2 µM, the GI50 (PC-3 prostate) was 3.96 µM and the TGI (PC-3 prostate) was 75.6 µM.
`Nc1nc(N)c2ncn(Cc3c(Cl)cccc3Cl)c2n1` was tested, and the TGI (DU-145 prostate) was over 100 µM, the TGI (HS 578T breast) was over 100 µM and the TGI (MDA-N) was over 100 µM. The TGI (PC-3 prostate) was over 100 µM.
Work on `CC(C)(C)c1cc2c(OP(c3ccccc3)c3ccccc3)c(c1)Cc1cc(C(C)(C)C)cc(c1OP(c1ccccc1)c1ccccc1)Cc1cc(C(C)(C)C)cc(c1OP(c1ccccc1)c1ccccc1)Cc1cc(C(C)(C)C)cc(c1OP(c1ccccc1)c1ccccc1)C2` yielded a GI50 (DLD-1 colon) of over 50 µM, a TGI (DLD-1 colon) of over 50 µM and a GI50 (LXFL 529 NSCLC) of over 50 µM. The TGI (LXFL 529 NSCLC) was over 50 µM and the TGI (SNB-78 CNS) was over 5 µM.
`COC(=O)c1c(C(=O)OC)c(C(=O)OC)c(C(=O)OC)c1C(=O)OC` was tested, and the TGI (DLD-1 colon) was over 100 µM, the TGI (LXFL 529 NSCLC) was over 100 µM and the TGI (RXF-631 renal) was over 100 µM.
`Cc1occc1C(=S)Nc1ccc(Cl)c(C(=O)OCC2CC2)c1` showed a TGI (DU-145 prostate) of over 100 µM, a TGI (HS 578T breast) of over 100 µM and a TGI (MDA-N) of over 100 µM. It also gave a TGI (PC-3 prostate) of over 100 µM.
In the case of `CC(C)C(OC(=O)c1cc(NC(=S)c2ccccc2)ccc1Cl)C(C)C`, the TGI (DU-145 prostate) is reported as over 100 µM, the TGI (HS 578T breast) is reported as 69 µM and the TGI (MDA-N) is reported as 39.8 µM. The TGI (PC-3 prostate) was 38.4 µM.
In the case of `COc1cc2c(C#N)n3c(c2cc1OC)C(=O)C(c1ccccc1)Oc1ccccc1-3` (stereo not drawn), the GI50 (DU-145 prostate) is reported as 91000 nM, the TGI (DU-145 prostate) is reported as over 100 µM and the GI50 (HS 578T breast) is reported as 4620 nM. For the same compound, the TGI (HS 578T breast) was 65.5 µM.
Work on `COc1cc2c3c(n(CCCn4cccn4)c(=O)c2cc1OC)-c1cc2c(cc1C3=O)OCO2` yielded a GI50 (DU-145 prostate) of 437 nM, a TGI (DU-145 prostate) of 5.57 µM and a GI50 (HS 578T breast) of 22700 nM. It also gave a TGI (HS 578T breast) of over 90.7 µM, a GI50 (PC-3 prostate) of 16.3 µM and a TGI (PC-3 prostate) of over 100 µM.
`COc1cc2c(c(OC)c1OC)C(=O)c1c-2n(CCCN)c(=O)c2cc([N+](=O)[O-])ccc12` gave a GI50 (DU-145 prostate) of 962 nM, a TGI (DU-145 prostate) of 2.31 µM and a GI50 (HS 578T breast) of 2000 nM. The TGI (HS 578T breast) was 4.99 µM, the GI50 (PC-3 prostate) was 0.736 µM and the TGI (PC-3 prostate) was 3.43 µM.
Work on `Cc1ccc2nc(NC(=O)CSC(=S)N3CCN(Cc4ccccc4)CC3)sc2c1` yielded a GI50 (DU-145 prostate) of over 100000 nM, a TGI (DU-145 prostate) of over 100 µM and a GI50 (HS 578T breast) of over 100000 nM. For the same compound, the TGI (HS 578T breast) was over 100 µM, the GI50 (PC-3 prostate) was over 100 µM and the TGI (PC-3 prostate) was over 100 µM.
`NC(CCc1nc(-c2ccccc2)cs1)C(=O)O` (stereo not drawn) showed a TGI (DLD-1 colon) of over 100 µM, a TGI (LXFL 529 NSCLC) of over 100 µM and a TGI (SNB-78 CNS) of over 100 µM.
In the case of `NCC(=O)OCN1C(=O)C2C3C=CC(C2C1=O)C1C2C(=O)N(COC(=O)CN)C(=O)C2C31` (stereo not drawn), the TGI (DLD-1 colon) is reported as 54.2 µM and 60.8 µM, the TGI (LXFL 529 NSCLC) is reported as 42.1 µM and > 100 µM and the TGI (SNB-78 CNS) is reported as over 100 µM. The TGI (XF 498 CNS) was 54.7 µM and 64.1 µM.
`CCCN(CCC)c1ccc(C=O)c(OC)c1` gave a GI50 (DU-145 prostate) of 26600 nM, a TGI (DU-145 prostate) of over 100 µM and a GI50 (HS 578T breast) of 15500 nM. The TGI (HS 578T breast) was 94.4 µM, the GI50 (PC-3 prostate) was 29.1 µM and the TGI (PC-3 prostate) was over 100 µM.
`CCCCCCCCOC(=O)c1cc(O)c(O)c(O)c1` gave a GI50 (DU-145 prostate) of 2840 nM, a TGI (DU-145 prostate) of 14 µM and a GI50 (HS 578T breast) of 2400 nM. For the same compound, the TGI (HS 578T breast) was 22.2 µM, the GI50 (PC-3 prostate) was 2.02 µM and the TGI (PC-3 prostate) was 20.5 µM.
`N#C/C(=C/c1cccs1)c1cccs1` gave a GI50 (DU-145 prostate) of over 100000 nM, a TGI (DU-145 prostate) of over 100 µM and a GI50 (HS 578T breast) of 99300 nM. It also gave a TGI (HS 578T breast) of over 100 µM, a GI50 (PC-3 prostate) of over 100 µM and a TGI (PC-3 prostate) of over 100 µM.
Work on `COc1ccc(S(=O)(=O)N2CCCCC2)cc1NC(=O)c1[nH]c(C)c2c1CCCCC2=O` yielded a GI50 (DU-145 prostate) of 7560 nM, a TGI (DU-145 prostate) of over 100 µM and a GI50 (HS 578T breast) of 1450 nM. For the same compound, the TGI (HS 578T breast) was over 100 µM, the GI50 (PC-3 prostate) was 2.6 µM and the TGI (PC-3 prostate) was over 100 µM.
In the case of `COC(=O)/C1=C/C2CC(/C=C(/c3ccccc3)C(=O)O1)C2`, the TGI (DLD-1 colon) is reported as over 100 µM and the TGI (XF 498 CNS) is reported as 45.2 µM.
`O=C(CN1C(=O)c2ccccc2C1=O)OC1C=CCCC1` (stereo not drawn) showed a TGI (DLD-1 colon) of over 100 µM, a TGI (LXFL 529 NSCLC) of over 100 µM and a TGI (SNB-78 CNS) of over 100 µM.
In the case of `COc1cc2c(cc1OCCN1C(=O)c3cccc4cccc(c34)C1=O)N=C[C@@H]1CCCN1C2=O`, the GI50 (DU-145 prostate) is reported as 18100 nM, the TGI (DU-145 prostate) is reported as 17.4 µM and 35.9 µM and the GI50 (HS 578T breast) is reported as 15200 nM. For the same compound, the TGI (HS 578T breast) was 19.9 µM and 35.8 µM, the GI50 (MDA-N) was 20.3 µM and the TGI (MDA-N) was 14.8 µM and 45.8 µM. The GI50 (PC-3 prostate) was 15 µM and the TGI (PC-3 prostate) was 13.6 µM and 28.2 µM.
For `C=C(C)[C@@H]1CC[C@]2(C)[C@H](CC=C3[C@@H]4CC(C)(C)CC[C@]4(C(=O)OC)CC[C@]32C)[C@@]1(C)CC/C(N)=N/O`, the GI50 (DU-145 prostate) was 1950 nM, the TGI (DU-145 prostate) was 4.28 µM and the GI50 (HS 578T breast) was 2020 nM. For the same compound, the TGI (HS 578T breast) was 4.97 µM, the GI50 (PC-3 prostate) was 1.91 µM and the TGI (PC-3 prostate) was 7.81 µM.
`c1ccc2c(c1)[Se]c1ccccc1[Se]2` showed a TGI (DLD-1 colon) of over 100 µM, a TGI (LXFL 529 NSCLC) of over 100 µM and a TGI (SNB-78 CNS) of over 100 µM. For the same compound, the TGI (XF 498 CNS) was over 100 µM.
In the case of `C/C(=C\c1ccccc1)C(O)S(=O)(=O)O` (stereo not drawn), the TGI (DLD-1 colon) is reported as over 100 µM and the TGI (LXFL 529 NSCLC) is reported as over 100 µM.
`COc1cccc(C(=O)O)c1Cc1cccc2ccccc12` showed a TGI (DLD-1 colon) of over 100 µM and a TGI (LXFL 529 NSCLC) of over 100 µM.
Work on `O=C1c2ccccc2C(=O)c2c1c(NCCNCCO)c1cc[nH]c1c2NCCNCCO` yielded a GI50 (DU-145 prostate) of 3310 nM, a TGI (DU-145 prostate) of over 59 µM and a GI50 (HS 578T breast) of 1930 nM. It also gave a TGI (HS 578T breast) of 11.1 µM, a GI50 (PC-3 prostate) of 3.22 µM and a TGI (PC-3 prostate) of over 25.6 µM.
`CCCC(=O)C(CC)/C(CCC(=O)N(Cc1ccccc1)Cc1ccccc1)=N/NC(=O)C[N+](C)(C)C` (stereo not drawn) gave a TGI (DLD-1 colon) of over 100 µM, a TGI (LXFL 529 NSCLC) of over 100 µM and a TGI (SNB-78 CNS) of over 100 µM. The TGI (XF 498 CNS) was over 100 µM.
`CC(C)NCCCNC1=C(Cl)C(=O)c2ccccc2C1=O` was tested, and the GI50 (DU-145 prostate) was 1980 nM, the TGI (DU-145 prostate) was 3.49 µM and the GI50 (HS 578T breast) was 2930 nM. It also gave a TGI (HS 578T breast) of 9.02 µM, a GI50 (PC-3 prostate) of 3.92 µM and a TGI (PC-3 prostate) of 20.7 µM.
`CC(=O)[CH-]C(=O)c1ccccc1.CC(=O)[CH-]C(=O)c1ccccc1.CC(C)CCCC(C)[C@H]1CCC2[C@@H]3CCC4C[C@@H]([O-])CC[C@]4(C)C3CC[C@@]21C.CC(C)CCCC(C)[C@H]1CCC2[C@@H]3CCC4C[C@@H]([O-])CC[C@]4(C)C3CC[C@@]21C.Cl.[Ti+4]` (stereo partly drawn) was tested, and the GI50 (DLD-1 colon) was over 25 µM, the TGI (DLD-1 colon) was over 25 µM and the GI50 (LXFL 529 NSCLC) was over 25 µM. The TGI (LXFL 529 NSCLC) was over 25 µM.
